Data from patent publication US20250276952A1, “4-AMINOPHENYL-THIAZOLE DERIVATIVES AND METHODS OF USE THEREOF” (CYTEIR THERAPEUTICS, INC., priority 2022, published 2025).
Like-named read-outs stand apart in the source and are kept apart here.

How the values were obtained:
[1] = system: Daudi (Burkitt Lymphoma) cells; assay: Intracellular lactate accumulation assay (Lactate-Glo, 2 h treatment); type: cell-based; conditions: Homo sapiens, read-out: LactateGlo EC50
Description: Intracellular lactate accumulation after a 2 h treatment with compounds of the present invention was measured in Daudi (Burkitt Lymphoma) cells using the Lactate-Glo Assay (Promega).
Daudi cells were seeded at 7,500 cells per well in 150 μL of growth medium (RPMI-1640 with 2 mM GlutaMAX+10% FBS) in clear, 96-well, flat-bottom microplates, and incubated overnight (37° C., 5% CO2). Compounds of the present invention were added using an INTEGRA VIAFLO 96 (8 point, 3-fold serial dilution, top concentration 1, 10, or 20 μM, 0.4% final DMSO concentration). After a 2 h incubation (37° C., 5% CO2) microplates containing cells were washed twice with 150 μL ice-cold PBS, resuspended in 25 μL ice-cold PBS containing 12.5 μL 0.6N HCl, and placed on a microplate shaker for 5 min to lyse the cells. Following lysis, 12.5 μL 1M Trizma base was added to neutralize the suspension, and microplates were returned to the microplate shaker for 1 min. Plates were sealed and stored at −20° C. until further processing. On the day of the assay, microplates were thawed for 45 min at room temperate and […] Lactate Detection Reagent (prepared as specified by manufacturer) was added to each well. Microplates were placed on a plate shaker for 1 min and incubated at room temperature for 1 h. Luminescence was measured using a BioTek Cytation 5 Multi-Mode Reader. Curve fitting and calculation of EC50 was performed using GraphPad Prism.

human MCT1 = target: T1, human MCT1 (Homo sapiens, UniProt P53985); assay: MCT1 transport inhibition assay (TPGA uptake, LC-MS/MS); type: cell-based; conditions: MDCK-II cells overexpressing human MCT1, TPGA transport, read-out: BioIVT MCT1 Transporter IC50
T1 construct: expressed in transfected cells; host or cells: MDCK-II cells, transiently co-transfected for 48 h
T1 sequence (P53985 1-500): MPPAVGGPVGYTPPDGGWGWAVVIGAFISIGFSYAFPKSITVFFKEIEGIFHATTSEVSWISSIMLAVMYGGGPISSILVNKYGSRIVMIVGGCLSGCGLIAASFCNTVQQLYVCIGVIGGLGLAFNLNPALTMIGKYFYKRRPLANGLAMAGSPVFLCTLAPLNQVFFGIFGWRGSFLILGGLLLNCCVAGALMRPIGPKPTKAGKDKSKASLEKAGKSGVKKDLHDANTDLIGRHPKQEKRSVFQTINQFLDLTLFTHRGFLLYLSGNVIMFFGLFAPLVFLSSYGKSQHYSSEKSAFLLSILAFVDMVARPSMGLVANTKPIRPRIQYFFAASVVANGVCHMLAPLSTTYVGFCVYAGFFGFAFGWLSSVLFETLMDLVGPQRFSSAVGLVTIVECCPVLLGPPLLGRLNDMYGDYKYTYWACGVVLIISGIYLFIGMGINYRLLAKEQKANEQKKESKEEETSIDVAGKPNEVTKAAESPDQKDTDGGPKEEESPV
T1 sequence (P35613 140-385 partner limits assumed): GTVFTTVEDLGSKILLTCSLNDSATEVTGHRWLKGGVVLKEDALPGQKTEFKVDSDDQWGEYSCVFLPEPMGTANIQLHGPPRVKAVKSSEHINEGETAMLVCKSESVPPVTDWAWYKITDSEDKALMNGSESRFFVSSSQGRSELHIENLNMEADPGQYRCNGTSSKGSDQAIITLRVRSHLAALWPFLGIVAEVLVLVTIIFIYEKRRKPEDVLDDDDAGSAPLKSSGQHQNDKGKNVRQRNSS
Description: Inhibition of MCT1 transport after treatment with compounds of the present invention was measured in MDCK-II cells that overexpress human MCT1 by quantifying the transport of 2-Thiophene-glycoxylic acid (TPGA) into cells using LC-MS/MS.
MDCK-II cells are seeded at 60,000 cells per well in growth medium (low-glucose DMEM+10% FBS) in 96-well trans-well membrane plates, and incubated overnight (37° C., 5% CO2). Cells were co-transfected with mammalian expression constructs coding for MCT1 and CD147 at a 2:1 ratio or an empty vector control (GFP) and then incubated for 48 h (37° C., 5% CO2). Cells were washed 3 times with HBSS and cells were preincubated with inhibitors or vehicle control at room temperature in HBSS for 30 min with orbital shaking (60 rpm). HBSS was aspirated from the wells and replaced with HBSS with 25 mM Bis-Tris pH5.5+inhibitor or vehicle control+500 μM TPGA and incubated for 1 min at room temperature with orbital shaking (60 rpm). Both the apical and basolateral side of the trans-well insert were washed 4 times with ice-cold PBS. Cells were lysed with 60 μL of cell extraction solution, and the amount of TPGA in each well was quantified in triplicate by LC-MS/MS. The MCT1-mediated uptake rate was calculated using the following equation: […]
Percent inhibition for each concentration of inhibitor tested was calculated using the following equation: […]
Curves were fit to the calculated percent inhibition for each inhibitor, and the IC50 representing the concentration of inhibitor at which MCT1 is inhibited by 50% was calculated from this curve.

CC(C)OC(=O)Nc1ccc(-c2cnc([C@H]3CC[C@H](NC(=O)OC(C)C)CC3)s2)c(F)c1 [Example 23, isopropyl ((trans)-4-(5-(2-fluoro-4-((isopropoxycarbonyl)amino)phenyl)thiazol-2-yl)cyclohexyl)carbamate]
EC50 [1]: > 5000 nM

CC(C)OC(=O)N[C@H]1CC[C@H](c2ncc(-c3ccc(NC(=O)NCc4ccccc4)cc3N)s2)CC1 [Example 19, isopropyl ((trans)-4-(5-(2-amino-4-(3-benzylureido)phenyl)thiazol-2-yl)cyclohexyl)carbamate]
EC50 [1]: < 50 nM

COc1cc(NC(=O)OC(C)C)ccc1-c1cnc([C@H]2CC[C@H](NC(=O)OC(C)C)CC2)s1 [Example 14, isopropyl ((trans)-4-(5-(4-((isopropoxycarbonyl)amino)-2-methoxyphenyl)thiazol-2-yl)cyclohexyl)carbamate]
EC50 [1]: 150 to 1000 nM

Cc1[nH]nc(C(F)(F)F)c1Cc1sc2c(c1C(=O)N1C[C@](C)(O)CO1)c(=O)n(C)c(=O)n2C(C)C [AZD3965]
IC50 (human MCT1; numeric values): 190 nM

CC(C)OC(=O)N[C@H]1CC[C@H](c2ncc(-c3ccc(NC(=O)NCc4ccccc4)cc3O)s2)CC1 [Example 20, isopropyl ((trans)-4-(5-(4-(3-benzylureido)-2-hydroxyphenyl)thiazol-2-yl)cyclohexyl)carbamate]
EC50 [1]: < 50 nM

COCCn1c(-c2ccc(NC(=O)OC(C)C)cc2F)cnc1[C@H]1CC[C@H](NC(=O)OC(C)C)CC1 [Example 32, isopropyl ((trans)-4-(5-(2-fluoro-4-((isopropoxycarbonyl)amino)phenyl)-1-(2-methoxyethyl)-1H-imidazol-2-yl)cyclohexyl)carbamate]
IC50 (human MCT1; class symbols): > 5000 nM

O=C(Nc1ccccc1C(=O)O)c1cc(S(=O)(=O)c2ccccc2)ccc1Cl [BAY8002]
IC50 (human MCT1; numeric values): 73 nM
